US20250002463A1, “NEW SALT FORMS OF AMILORIDE AND ITS DERIVATIVES FOR PHARMACEUTICAL USE” (PSOMRI Holding AB, priority 2021, published 2025)

Experiments:
[1] = Crystallinity of salt forms by HT-XRPD; type: physicochemical; conditions: salt screen solid forms
Procedure: The precipitated solids were analyzed by high throughput X-ray powder diffractometry (HT XRPD). Liquid phases (both solutions and mother liquors) were evaporated at ambient conditions and the residual solids were analyzed by HT XRPD.
XRPD patterns were obtained using the Ardena T2 high-throughput XRPD set-up. The plates were mounted on a Bruker General Area Detector Diffraction System (GADDS) equipped with a VÅNTEC-500 gas area detector corrected for intensity and geometric variations. The calibration of the measurement accuracy (peaks position) was performed using NIST SRM1976 standard (Corundum).
No background subtraction or curve smoothing was applied to the XRPD patterns.

[2] = Physical stability under Accelerated Aging Conditions (AAC, 40° C./75% RH, 2 days), HT-XRPD; conditions: for Physical Stability: AAC 40° C./75% RH, 2 days, re-analyzed by HT-XRPD; for physical stability upon exposure to AAC: Example 2; for physical stability upon exposure to AAC / Physically stable after AAC: 40° C./75% RH for 2 days; for Physically stable after AAC: Example 1

| Structure (SMILES) | Crystallinity [1] | Physical Stability [2] | physical stability upon exposure to AAC [2] | Physically stable after AAC [2] |
| --- | --- | --- | --- | --- |
| NC(=NC(=O)c1nc(Cl)c(N)nc1N)NCc1ccccc1.O=C(O)CCCCC(=O)O [ADI1] | Good | Unstable |  |  |
| NC(=NC(=O)c1nc(Cl)c(N)nc1N)NCc1ccccc1.O=S(=O)(O)c1ccccc1 [BES1] | Good | Unstable |  |  |
| N=C(NCc1ccccc1)NC(=O)c1nc(Cl)c(N)nc1N.O=S(=O)(O)c1ccccc1 [BES2] | Good | Unstable |  |  |
| CCCC(=O)O.NC(=NC(=O)c1nc(Cl)c(N)nc1N)NCc1ccccc1 [BUT2] | Poor | Unstable |  |  |
| NC(=NC(=O)c1nc(Cl)c(N)nc1N)NCc1ccccc1.O=C(O)C=Cc1ccccc1 [CIN1] | Moderate | Stable | physically stable |  |
| NC(=NC(=O)c1nc(Cl)c(N)nc1N)NCc1ccccc1.O=C(O)C=Cc1ccccc1 [CIN2] | Good | Stable | physically stable |  |
| NC(=NC(=O)c1nc(Cl)c(N)nc1N)NCc1ccccc1.O=C(O)CC(O)(CC(=O)O)C(=O)O [CIT1] | Moderate/Poor | Unstable |  |  |
| NC(=NC(=O)c1nc(Cl)c(N)nc1N)NCc1ccccc1.O=C(O)CC(O)(CC(=O)O)C(=O)O [CIT2] | Good |  |  |  |
| Cl.Cl.N=C(NCc1ccccc1)NC(=O)c1nc(Cl)c(N)nc1N [Di-HCl1] |  |  |  | physically unstable |
| NC(=NC(=O)c1nc(Cl)c(N)nc1N)NCc1ccccc1.O=S(=O)(O)CCS(=O)(=O)O [EDY1] | Good | Unstable |  |  |
| NC(=NC(=O)c1nc(Cl)c(N)nc1N)NCc1ccccc1.O=S(=O)(O)CCS(=O)(=O)O [EDY2] | Good | Stable | physically stable |  |
| NC(=NC(=O)c1nc(Cl)c(N)nc1N)NCc1ccccc1.O=S(=O)(O)CCS(=O)(=O)O [EDY3] | Good | Stable | physically stable |  |
| NC(=NC(=O)c1nc(Cl)c(N)nc1N)NCc1ccccc1.NC(=NC(=O)c1nc(Cl)c(N)nc1N)NCc1ccccc1.O=S(=O)(O)CCS(=O)(=O)O [EDY4] | Good | Unstable |  |  |
| NC(=NC(=O)c1nc(Cl)c(N)nc1N)NCc1ccccc1.O=S(=O)(O)CCS(=O)(=O)O [EDY5] | Moderate |  |  |  |
| CCS(=O)(=O)O.NC(=NC(=O)c1nc(Cl)c(N)nc1N)NCc1ccccc1 [ESY1] | Good | Stable | physically stable |  |
| CCS(=O)(=O)O.NC(=NC(=O)c1nc(Cl)c(N)nc1N)NCc1ccccc1 [ESY3] | Poor | Unstable |  |  |
| CCS(=O)(=O)O.NC(=NC(=O)c1nc(Cl)c(N)nc1N)NCc1ccccc1 [ESY4] | Moderate |  |  |  |
| N=C(NCc1ccccc1)NC(=O)c1nc(Cl)c(N)nc1N.O=CO [FOR1] | Good |  |  |  |
| NC(=NC(=O)c1nc(Cl)c(N)nc1N)NCc1ccccc1.O=CO [FOR2] | Moderate/Poor | Unstable |  |  |
| NC(=NC(=O)c1nc(Cl)c(N)nc1N)NCc1ccccc1.O=CO [FOR4] | Good |  |  |  |

| Structure (SMILES) | Crystallinity [1] | Physical Stability [2] | physical stability upon exposure to AAC [2] | Physically stable after AAC [2] |
| --- | --- | --- | --- | --- |
| NC(=NC(=O)c1nc(Cl)c(N)nc1N)NCc1ccccc1.O=CO [FOR5] | Good |  |  |  |
| NC(=NCc1ccccc1)NC(=O)c1nc(Cl)c(N)nc1N.O=C(O)C=CC(=O)O [FUM1] | Good | Unstable |  |  |
| N=C(NCc1ccccc1)NC(=O)c1nc(Cl)c(N)nc1N.O=C(O)C=CC(=O)O [FUM2] | Good | Stable | physically stable |  |
| NC(=NC(=O)c1nc(Cl)c(N)nc1N)NCc1ccccc1.O=C(O)c1ccco1 [FUR1] | Good | Stable | physically stable |  |
| NC(=NC(=O)c1nc(Cl)c(N)nc1N)NCc1ccccc1.O=C(O)c1ccco1 [FUR2] | Good |  |  |  |
| NC(=NC(=O)c1nc(Cl)c(N)nc1N)NCc1ccccc1.O=C(O)c1ccco1 [FUR3] | Good | Unstable |  |  |
| NC(=NC(=O)c1nc(Cl)c(N)nc1N)NCc1ccccc1.O=C(O)c1cc(O)ccc1O [GEN1] | Moderate | Stable | physically stable |  |
| N=C(NCc1ccccc1)NC(=O)c1nc(Cl)c(N)nc1N.O=C(O)c1cc(O)ccc1O [GEN2] | Moderate | Stable | physically stable |  |
| NC(=NC(=O)c1nc(Cl)c(N)nc1N)NCc1ccccc1.O=C(O)c1cc(O)ccc1O [GEN3] | Moderate | Unstable |  |  |
| Br.Br.NC(=NC(=O)c1nc(Cl)c(N)nc1N)NCc1ccccc1 [HBR3] | Moderate | Unstable |  |  |
| Br.NC(=NC(=O)c1nc(Cl)c(N)nc1N)NCc1ccccc1 [HBR6] | Good |  |  |  |
| Br.N=C(NCc1ccccc1)NC(=O)c1nc(Cl)c(N)nc1N [HBR7] | Good |  |  |  |
| Br.N=C(NCc1ccccc1)NC(=O)c1nc(Cl)c(N)nc1N [HBR8] | Good |  |  |  |
| Br.NC(=NC(=O)c1nc(Cl)c(N)nc1N)NCc1ccccc1 [HBR10] | Moderate | Unstable |  |  |
| NC(=NC(=O)c1nc(Cl)c(N)nc1N)NCc1ccccc1.O=C(O)CNC(=O)c1ccccc1 [HIP1] | Good | Unstable |  |  |
| NC(=NC(=O)c1nc(Cl)c(N)nc1N)NCc1ccccc1.O=C(O)CNC(=O)c1ccccc1 [HIP2] | Poor |  |  |  |
| NC(=NC(=O)c1nc(Cl)c(N)nc1N)NCc1ccccc1.O=C(O)C=CC(=O)O [MAE2] | Good | Stable | physically stable |  |
| NC(=NC(=O)c1nc(Cl)c(N)nc1N)NCc1ccccc1.O=C(O)C=CC(=O)O [MAE3] | Moderate | Stable | physically stable |  |
| NC(=NC(=O)c1nc(Cl)c(N)nc1N)NCc1ccccc1.O=C(O)C[C@H](O)C(=O)O [MAL1] | Good | Stable | physically stable |  |
| N=C(NCc1ccccc1)NC(=O)c1nc(Cl)c(N)nc1N.O=C(O)CC(=O)O [MAO4] | Good |  |  |  |

| Structure (SMILES) | Crystallinity [1] | Physical Stability [2] | physical stability upon exposure to AAC [2] | Physically stable after AAC [2] |
| --- | --- | --- | --- | --- |
| CS(=O)(=O)O.NC(=NC(=O)c1nc(Cl)c(N)nc1N)NCc1ccccc1 [MES3] | Moderate |  |  |  |
| N=C(NCc1ccccc1)NC(=O)c1nc(Cl)c(N)nc1N.O=[N+]([O-])O [NIT1] |  |  |  | physically unstable |
| NC(=NCc1ccccc1)NC(=O)c1nc(Cl)c(N)nc1N.O=[N+]([O-])O [NIT2] |  |  |  | physically unstable |
| NC(=NC(=O)c1nc(Cl)c(N)nc1N)NCc1ccccc1.O=[N+]([O-])O [NIT4] |  |  |  | physically unstable |
| N=C(NCc1ccccc1)NC(=O)c1nc(Cl)c(N)nc1N.O=S(=O)(O)c1ccc2ccccc2c1 [NSA1] | Good | Unstable |  |  |
| NC(=NC(=O)c1nc(Cl)c(N)nc1N)NCc1ccccc1.O=S(=O)(O)c1ccc2ccccc2c1 [NSA2] | Moderate | Stable | physically stable |  |
| NC(=NCc1ccccc1)NC(=O)c1nc(Cl)c(N)nc1N.O=S(=O)(O)c1ccc2ccccc2c1 [NSA4] | Poor | Stable | physically stable |  |
| N=C(NCc1ccccc1)NC(=O)c1nc(Cl)c(N)nc1N.O=C(O)c1cc(=O)[nH]c(=O)[nH]1 [ORO1] | Good | Stable | physically stable |  |
| NC(=NCc1ccccc1)NC(=O)c1nc(Cl)c(N)nc1N.O=C(O)c1cc(=O)[nH]c(=O)[nH]1 [ORO2] | Good - poorly | Stable | physically stable |  |
| NC(=NC(=O)c1nc(Cl)c(N)nc1N)NCc1ccccc1.O=C(O)c1cc(=O)[nH]c(=O)[nH]1 [ORO3] | Poor | Poor- |  |  |
| NC(=NC(=O)c1nc(Cl)c(N)nc1N)NCc1ccccc1.O=C(O)c1cc2ccccc2c(Cc2c(O)c(C(=O)O)cc3ccccc23)c1O [PAM4] | Poor |  |  |  |
| N=C(NCc1ccccc1)NC(=O)c1nc(Cl)c(N)nc1N.O=P(O)(O)O [PHO1] |  |  |  | physically unstable |
| CCC(=O)O.NC(=NC(=O)c1nc(Cl)c(N)nc1N)NCc1ccccc1 [PRO5] | Moderate |  |  |  |
| NC(=NC(=O)c1nc(Cl)c(N)nc1N)NCc1ccccc1.O=C(O)c1ccccc1O [SAL2] | Poor |  |  |  |
| NC(=NC(=O)c1nc(Cl)c(N)nc1N)NCc1ccccc1.O=S(=O)(O)O [SUL2] |  |  |  | physically unstable |
| Cc1ccc(S(=O)(=O)O)cc1.N=C(NCc1ccccc1)NC(=O)c1nc(Cl)c(N)nc1N [TOS2a] |  |  |  | physically unstable |
| Cc1ccc(S(=O)(=O)O)cc1.N=C(NCc1ccccc1)NC(=O)c1nc(Cl)c(N)nc1N [TOS3] |  |  |  | physically stable |
| CCCCC(=O)O.NC(=NC(=O)c1nc(Cl)c(N)nc1N)NCc1ccccc1 [VAL2] | Poor |  |  |  |
